Assay results as given in the NIST ThermoML archive (doi:10.1021/acs.jced.6b00261).

Settings: Liquid, Frequency=8 MHz, Pulse-echo method

C[Si]1(C)O[Si](C)(C)O[Si](C)(C)O[Si](C)(C)O1 [octamethylcyclotetrasiloxane]
Settings | speed of sound [m/s]
299.67 K, 14920 kPa | 1006.8
299.79 K, 130 kPa | 911.09
299.8 K, 520 kPa | 913.77
299.81 K, 980 kPa | 916.96
299.81 K, 1500 kPa | 920.51
299.82 K, 1980 kPa | 923.9
299.83 K, 3440 kPa | 933.79
299.85 K, 6010 kPa | 950.89
300.15 K, 10240 kPa | 978.63
349.96 K, 26230 kPa | 939.02
349.98 K, 14970 kPa | 866.97
350 K, 10200 kPa | 832.31
350.03 K, 6210 kPa | 800.86
350.04 K, 1960 kPa | 764.8
350.04 K, 3530 kPa | 778.49
350.05 K, 960 kPa | 755.62
350.05 K, 1480 kPa | 760.43
350.06 K, 530 kPa | 751.64
350.07 K, 120 kPa | 747.75
350.35 K, 22660 kPa | 915.86
399.62 K, 19680 kPa | 784.97
399.63 K, 15100 kPa | 749.46
399.64 K, 6070 kPa | 667.98
399.64 K, 10120 kPa | 706.83
399.68 K, 3610 kPa | 641.86
399.69 K, 19290 kPa | 782.02
399.7 K, 510 kPa | 605.91
399.7 K, 1030 kPa | 612.25
399.7 K, 1460 kPa | 617.43
399.7 K, 2040 kPa | 624.18
399.71 K, 120 kPa | 600.99
449.63 K, 960 kPa | 475.36
449.64 K, 130 kPa | 461.18
449.64 K, 500 kPa | 467.67
449.69 K, 1960 kPa | 491.86
449.7 K, 1490 kPa | 484.22
449.77 K, 3600 kPa | 516.36
449.87 K, 5900 kPa | 547.45
450 K, 10040 kPa | 596.17
450.19 K, 15080 kPa | 646.97
450.23 K, 16420 kPa | 659.13
499.88 K, 3480 kPa | 398.42
499.88 K, 6030 kPa | 444.06
499.91 K, 2030 kPa | 367.4
499.92 K, 330 kPa | 321.35
499.92 K, 1490 kPa | 354.75
499.93 K, 11150 kPa | 515.95
499.94 K, 520 kPa | 329.04
500 K, 10650 kPa | 509.56
549.54 K, 5510 kPa | 338.9
549.55 K, 5070 kPa | 329.01
549.56 K, 4550 kPa | 317.1
549.61 K, 3880 kPa | 300.55
549.97 K, 6640 kPa | 364.29
